What all share (assay type): in vivo
In test [1] the test system is Nezara viridula. The test can be described thus: Nezara viridula spray test. As to conditions: in Hordeum vulgare, 96 h, barley plants, larvae, after 4 days; for mortality at 100 g/ha: application rate 100 g/ha; for mortality at 500 g/ha: application rate 500 g/ha. The gist of the method:
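Mortality was read at day 4 (0% = no kill, 100% = total kill) after spraying larva-infested barley plants. Test solutions were made from an acetone/DMF concentrate diluted with water holding 1000 ppm alkylarylpolyglycol ether emulsifier.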

In test [2] the test system is Rhipicephalus microplus. Briefly: Rhipicephalus (Boophilus) microplus injection test (BOOPMI Inj). As to conditions: 168 h, injection into adult engorged female ticks, egg deposition after 7 days, read-out: activity (efficacy: 100% means all eggs are infertile); for pest or weed control at 0.004 mg: application rate 4 μg/tick; for pest or weed control at 0.02 mg: application rate 20 μg/tick. The gist of the method: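 Compound in DMSO, 1 μL, injected abdominally into five adult engorged females, which were then held in a climate chamber. Read-out is egg fertility, scored from deposition at 7 days, with unclear eggs followed to hatching (~42 days); 0% means all eggs fertile, 100% all infertile.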

Test [3] concerns Diabrotica balteata. The test can be described thus: Diabrotica balteata spray test. As to conditions: 168 h, wheat seeds, larvae, after 7 days, read-out: activity (efficacy: 100% means all seedlings have grown up like in the untreated, uninfected control); for pest or weed control at 32 µg/disc, 100 g/ha: application rate 100 g/ha (=32 μg/well); for pest or weed control at 160 µg/disc, 500 g/ha: application rate 500 g/ha (=160 μg/well). The essentials:
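Efficacy (%) was scored 7 days after spraying, with 100% meaning growth like the untreated, uninfected control and 0% meaning no seedling grew. Spray solutions of compound in acetone/DMF with emulsifier-containing water went onto 1-day-germinated wheat seeds, and each unit was then infested with 10-20 banded cucumber beetle larvae.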

For test [4], the system named is Rhipicephalus microplus. Briefly: Rhipicephalus (Boophilus) microplus in-vitro contact test, larval cattle tick, strain Parkhurst (BOOPMI Cont). As to conditions: application rate 5 μg/cm^2 (=500 g/ha), tick larvae, after 48 hours, read-out: activity (efficacy: 100% means all larvae are dead or moribund). The gist of the method: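 After 48 h at 27° C. and 85% humidity, percent dead or moribund larvae was scored from negative geotactic behaviour. Larvae (20-50, Parkhurst strain, synthetic pyrethroid-resistant) were exposed in tubes coated with compound from acetone, 900 ppm corresponding to 5 μg/cm^2.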

In test [5] the test system is Spodoptera frugiperda. The test can be described thus: Spodoptera frugiperda spray test. Conditions: in Zea mays, 168 h, read-out: activity (mortality). The essentials: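 Percent kill of fall armyworm caterpillars was assessed 7 days after infesting dried, treated maize leaf sections. Treatment was a spray of compound in acetone/dimethylformamide, diluted with water containing emulsifier at 1000 ppm.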

The subject of test [6] is Ctenocephalides felis. Briefly: Ctenocephalides felis in-vitro contact test, adult cat flea (CTECFE Cont). Conditions: application rate 5 μg/cm^2 (=500 g/ha), adult cat fleas, after 48 hours, read-out: activity (efficacy: 100% means all fleas are dead or moribund). The gist of the method: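 Efficacy, as percent of fleas dead or moribund, was scored 48 h after adults (5-10 per tube) were placed in glass tubes whose walls carried dried compound at 5 μg/cm^2 (900 ppm solution). Moribund meant failing to climb away from a 45-50° C. hot plate within 5 min.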

Test [7] deals with Rhipicephalus sanguineus. The test can be described thus: Rhipicephalus sanguineus in-vitro contact test, adult brown dog ticks (RHIPSA Cont). As to conditions: 48 h, after 48 hours, read-out: activity (efficacy: 100% means all ticks are dead or moribund); for pest or weed control at 1 µg/cm2, 100 g/ha: application rate 1 μg/cm^2 (=100 g/ha); for pest or weed control at 5 µg/cm2, 500 g/ha: application rate 5 μg/cm^2 (=500 g/ha). The essentials: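 Compound in acetone (9 mg/mL stock, diluted to test concentration) is coated onto inner walls of glass tubes by rotation for 2 h at 30 rpm. Efficacy is read after 48 h: ticks are tapped down and held on a 45-50° C plate for at most 5 min, and immotile or uncoordinated ones that fail to climb away count as dead or moribund.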

SMILES strings stand for the structures.

The term mortality denotes the share of the test organisms that died.

In test [1], `C[C@H](NC(=O)c1cc(Cl)cc(OC(F)(F)F)c1)c1ncnn1-c1ncc(Cl)s1` [II-16] showed a mortality at 100 g/ha of 90% and a mortality at 500 g/ha of 100%. In test [2], the pest or weed control at 0.004 mg came out at 100% and the pest or weed control at 0.02 mg came out at 100%. Besides, in test [3], the pest or weed control at 32 µg/disc, 100 g/ha came out at 100% and the pest or weed control at 160 µg/disc, 500 g/ha is 100%. In addition, the pest or weed control at 5 µg/cm2 in test [4] stood at 100%. The mortality at 100 g/ha in test [5] was found to be 100%. Further, the pest or weed control at 5 µg/cm2 in test [6] was determined as 100%. Moreover, in test [7], the pest or weed control at 1 µg/cm2, 100 g/ha was determined as 100% and the pest or weed control at 5 µg/cm2, 500 g/ha was found to be 100%.

In test [1], `CCN(C)C(=O)c1ccc(-n2ncnc2[C@H](C)NC(=O)c2cc(Cl)cc(C(F)(F)F)c2)nc1` [II-27] registered a mortality at 500 g/ha of 100%. Moreover, in test [2], the pest or weed control at 0.004 mg was 100% and the pest or weed control at 0.02 mg is 100%. For the same molecule, in test [3], the pest or weed control at 160 µg/disc, 500 g/ha was 100%. Further, in test [4], the pest or weed control at 5 µg/cm2 amounted to 100%. Also, in test [5], the mortality at 100 g/ha was determined as 83% and the mortality at 500 g/ha turned out to be 83%. Further, the pest or weed control at 5 µg/cm2 in test [6] is 100%. For the same molecule, in test [7], the pest or weed control at 1 µg/cm2, 100 g/ha was determined as 100% and the pest or weed control at 5 µg/cm2, 500 g/ha came out at 100%.

Turning to `C[C@H](NC(=O)c1cc(Cl)cc(C(F)(F)F)c1)c1ncnn1-c1cc(N)ccn1` [II-28], in test [1], the mortality at 500 g/ha was 90%. Besides, in test [2], the pest or weed control at 0.004 mg amounted to 100% and the pest or weed control at 0.02 mg amounted to 100%. Also, in test [3], the pest or weed control at 32 µg/disc, 100 g/ha is 100% and the pest or weed control at 160 µg/disc, 500 g/ha worked out at 100%. In addition, in test [4], the pest or weed control at 5 µg/cm2 turned out to be 90%. Further, in test [5], the mortality at 500 g/ha was 100%. The pest or weed control at 5 µg/cm2 in test [6] is 100%. Also, in test [7], the pest or weed control at 1 µg/cm2, 100 g/ha was 100% and the pest or weed control at 5 µg/cm2, 500 g/ha came to 100%.

For the molecule `C[C@H](NC(=O)c1cc(Cl)cc(OC(F)(F)F)c1)c1ncnn1-c1ncc(OC(F)F)cn1` [II-30], in test [1], the mortality at 100 g/ha amounted to 100% and the mortality at 500 g/ha is 100%. In test [2], the pest or weed control at 0.004 mg was 100% and the pest or weed control at 0.02 mg was 100%. In addition, in test [3], the pest or weed control at 32 µg/disc, 100 g/ha was 100% and the pest or weed control at 160 µg/disc, 500 g/ha was 100%. In addition, in test [4], the pest or weed control at 5 µg/cm2 turned out to be 100%. Further, in test [5], the mortality at 100 g/ha was 100% and the mortality at 500 g/ha was 100%. In test [6], the pest or weed control at 5 µg/cm2 was determined as 100%. In addition, in test [7], the pest or weed control at 1 µg/cm2, 100 g/ha was found to be 100% and the pest or weed control at 5 µg/cm2, 500 g/ha was 100%.

With `CCN(C(=O)c1ccc(-n2ncnc2[C@H](C)NC(=O)c2cc(Cl)cc(C(F)(F)F)c2)nc1)C1CC1` [II-31], the mortality at 500 g/ha in test [1] was determined as 90%. In addition, in test [2], the pest or weed control at 0.004 mg was 100% and the pest or weed control at 0.02 mg amounted to 100%. In addition, in test [3], the pest or weed control at 32 µg/disc, 100 g/ha stood at 100% and the pest or weed control at 160 µg/disc, 500 g/ha amounted to 100%. The pest or weed control at 5 µg/cm2 in test [4] was determined as 100%. For the same molecule, in test [5], the mortality at 100 g/ha is 100% and the mortality at 500 g/ha was 100%. Further, the pest or weed control at 5 µg/cm2 in test [6] amounted to 100%. Besides, in test [7], the pest or weed control at 1 µg/cm2, 100 g/ha worked out at 100% and the pest or weed control at 5 µg/cm2, 500 g/ha worked out at 100%.

Turning to `Cc1nc([C@H](C)NC(=O)c2cc(Br)cc(C(F)(F)F)c2)n(-c2ccc(C#N)cn2)n1` [II-32], in test [1], the mortality at 100 g/ha was 100% and the mortality at 500 g/ha is 100%. Besides, in test [2], the pest or weed control at 0.004 mg worked out at 80% and the pest or weed control at 0.02 mg is 100%. Moreover, in test [3], the pest or weed control at 32 µg/disc, 100 g/ha was determined as 100% and the pest or weed control at 160 µg/disc, 500 g/ha worked out at 100%. Further, the pest or weed control at 5 µg/cm2 in test [4] came to 100%. Moreover, in test [5], the mortality at 100 g/ha came to 100% and the mortality at 500 g/ha came out at 100%. Moreover, in test [6], the pest or weed control at 5 µg/cm2 turned out to be 100%. In addition, in test [7], the pest or weed control at 1 µg/cm2, 100 g/ha turned out to be 100% and the pest or weed control at 5 µg/cm2, 500 g/ha stood at 100%.

The values above are taken from US20220274947A1, “NOVEL HETEROARYL-TRIAZOLE COMPOUNDS AS PESTICIDES” (Bayer Aktiengesellschaft, priority 2019, published 2022).
